Assay results reported in patent US11098016B2, “Indazole derivatives useful as glucagon receptor antagonists” (JANSSEN PHARMACEUTICA NV, priority 2016, dated 2021).

How the values were obtained:
human GCGR = target: T1, human GCGR (Homo sapiens, UniProt P47871); experiment: Cellular functional assay, cAMP readout: inhibition of glucagon stimulated cAMP; type: cell-based
T1 construct: expressed in transfected cells; host or cells: HEK293 (hGluc-1HEK), pcDNA3.1, G418 selection
Procedure: IC50 Values in Cellular Functional Assays: cAMP Readout
Full-length human GCGR (Accession Number: NM000160) subcloned into pcDNA3.1 was stably transfected into HEK293 cells (hGluc-1HEK) and maintained under G418 selection (500 μg/mL). Cell cultures were maintained in DMEM/F12 media supplemented with 10% FBS and 1% GlutaMax™ Supplement (Available from ThermoFisher Scientific, catalog #35050061). Glucagon stimulated cAMP was quantified using LANCE technology as per manufacturer instructions. On the day of the experiment, spent media was removed and cells were washed with Hank's Buffered Saline solution (HBSS), and cells harvested with non-enzymatic cell dissociation solution, then washed once with HBSS. Cells were re-suspended in stimulation buffer at a concentration of 0.83×10^6 cells/ml and cAMP detection antibody was added. 6 μl/well of this solution was then dispensed in a 384 well plate (cell density 5000 cells/well). Test compound was serially diluted in DMSO and 50 nl were dispensed on top of the cell solution and allowed to incubate for 30 minutes. 6 μl of a 2× glucagon solution (final concentration in assay 100 pM) was then added and the reaction was terminated after 5 minutes with the addition of detection mix. The resulting mixture was incubated, protected from light for 1.5 h. cAMP levels were quantified by TR-FRET in an EnVision instrument against a known standard. IC50's were generated by using a non-linear regression macro driven in Excel and converted to Ki values.

glucagon receptor = experiment: Glucagon challenge in vivo assay measuring blood glucose (normal dog glucagon challenge test); details: male beagle dogs; 10 mg/kg oral gavage
Procedure: Glucagon Challenge In Vivo Assay Measuring Blood Glucose
The efficacy of a glucagon receptor antagonist was evaluated using a normal dog glucagon challenge test. Male beagle dogs were overnight fasted prior to the study. Test compound (at 3 mg/kg and 10 mg/kg for Compound #196 and at 10 mg/kg for Compounds #180, #248 and #253) or vehicle (0.5% hydroxypropyl methylcellulose) was dosed via oral gavage. Ninety minutes later, the dogs (1.5 years old, ˜9 Kg) were submitted to a glucagon challenge test by a single intramuscular injection of glucagon (Glucagon, rDNA origin, Eli Lilly, Indianapolis, Ind.) at dose of […]. Blood glucose levels were determined at times −10 min, 0 min (on challenge), 10 min, 20 min, 30 min, and 60 min after glucagon injection.

T1 sequence (P47871 26-477): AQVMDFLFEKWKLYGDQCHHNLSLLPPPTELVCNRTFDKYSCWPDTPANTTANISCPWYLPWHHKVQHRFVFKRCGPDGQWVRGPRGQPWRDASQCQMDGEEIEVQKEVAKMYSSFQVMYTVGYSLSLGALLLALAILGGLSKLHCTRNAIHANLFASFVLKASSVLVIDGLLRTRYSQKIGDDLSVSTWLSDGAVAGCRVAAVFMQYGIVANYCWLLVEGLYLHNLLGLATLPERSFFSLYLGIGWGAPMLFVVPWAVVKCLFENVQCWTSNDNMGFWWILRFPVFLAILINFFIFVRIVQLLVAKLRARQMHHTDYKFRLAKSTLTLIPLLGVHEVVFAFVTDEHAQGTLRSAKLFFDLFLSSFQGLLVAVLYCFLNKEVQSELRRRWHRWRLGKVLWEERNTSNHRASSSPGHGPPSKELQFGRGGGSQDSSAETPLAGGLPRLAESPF

Structure (SMILES) | Ki (human GCGR) [nM] | blood glucose levels during glucagon challenge time compared with vehicle treated group (glucagon receptor)
Cc1cc(C(F)(F)F)ccc1-c1ccc2c(cnn2C(CC(C)C)c2ccc(CNCCC(=O)O)cc2)c1 (stereo not shown) [Compound 84, 3-((4-(3-Methyl-1-(5-(2-methyl-4-(trifluoromethyl)phenyl)-1H-indazol-1-yl)butyl)benzyl)amino)propanoic Acid] | 85 | 
O=C(O)CCNC(=O)c1ccc(C(CCc2ccccc2)n2cc3cc(-c4ccc(C(F)(F)F)cc4)ccc3n2)cc1 (stereo not shown) [Compound 104] | 145 | 
Cc1c(-c2ccc(C(F)(F)F)cc2Cl)ccc2nn([C@@H](CC(C)C)c3ccc(C(=O)NCCC(=O)O)cc3)cc12 [Compound 180, 3-[[4-[(1S)-1-[5-[2-Chloro-4-(trifluoromethyl)phenyl]-4-methyl-indazol-2-yl]-3-methyl-butyl]benzoyl]amino]propanoic Acid] |  | markedly reduced blood glucose levels
CC(C)CC(c1ccc(CNCCC(=O)O)cc1)n1ncc2cc(-c3ccc(OC(F)(F)F)cc3)ccc21 (stereo not shown) [Compound 10, 3-((4-(3-Methyl-1-(5-(4-(trifluoromethoxy)phenyl)-1H-indazol-1-yl)butyl)benzyl)amino)propanoic Acid] | 285 | 
CC(C)CC(c1ccc(CNCCC(=O)O)cc1)n1ncc2cc(-c3cc(Cl)cc(Cl)c3)ccc21 (stereo not shown) [Compound 118, 3-((4-(1-(5-(3,5-Dichlorophenyl)-1H-indazol-1-yl)-3-methylbutyl)benzyl)amino)propanoic Acid] | 2250 | 
O=C(O)CCNC(=O)c1ccc(C(CCc2ccccc2)n2ncc3cc(-c4ccc(C(F)(F)F)cc4)ccc32)cc1 (stereo not shown) [Compound 142] | 850 | 
COc1ccc(-c2ccc3c(cnn3C(CC(C)C)c3ccc(CNCCC(=O)O)cc3)c2)cc1 (stereo not shown) [Compound 38, 3-((4-(1-(5-(4-Methoxyphenyl)-1H-indazol-1-yl)-3-methylbutyl)benzyl)amino)propanoic Acid] | 650 | 

Now from value to molecule, other results behind:

Ki (human GCGR) [nM] | Structure (SMILES) | blood glucose levels during glucagon challenge time compared with vehicle treated group (glucagon receptor)
275 | O=C(O)CCNC(=O)c1ccc(C(CCC2CCCCC2)n2cc3cc(-c4ccc(C(F)(F)F)cc4)ccc3n2)cn1 (stereo not shown) [Compound 186] | 
1100 | COCCC(c1ccc(C(=O)NCCC(=O)O)cc1)n1cc2cc(-c3ccc(C(F)(F)F)cc3)ccc2n1 (stereo not shown) [Compound 202] | 
71 | Cc1cc(Cl)ccc1-c1ccc2nn(C(CCC3CCCCC3)c3ccc(C(=O)NCCC(=O)O)nc3)cc2c1 (stereo not shown) [Compound 184] | 
